Reference: patent US7279183B2, “Method of reducing thrombosis and complications after arterial angioplasty using stent coated with magnesium-based compound” (Cedars-Sinai Medical Center, priority 2001, dated 2007)
Like-named read-outs stand apart in the source and are kept apart here.

Experiments:
[1] = magnesium sulfate intravenously, ANOVA
Description: The graph in FIG. 3 was generated by taking between 10 and 14 observations at each time point. The MABP was measured in millimeters of mercury (mmHg). The heart rate was measured in beats per minute (BPM).

[2] = Description: (§1) Twenty one low-risk patients undergoing non-acute percutaneous coronary intervention with stent implantation received a two gm bolus of intravenous MgSO4 followed by a 1.5 gm/hour infusion for four hours and a 1 gm/hour infusion for the next eight hours. […] The preset primary endpoints for this experiment were: acute thrombotic occlusion and need for platelet IIb/IIIa inhibitors bailout, death, myocardial infarction, recurrent ischemia and need for urgent revascularization at 48 hours and 30 days. The secondary safety endpoints included hypotension, bradycardia, bleeding complications and heart block within the first 24 hours.
in-stent thrombosis = test system: in-stent thrombosis
Description: as §1

[3] = bleeding time from thigh incision; assay type: in vivo, swine
Description: Bleeding time is defined as the time from the creation of an incision to the point where bleeding from the incision ceases. In the experiment according to one embodiment of the present invention discussed herein, bleeding time was measured from an incision on the ventral surface of the thigh with a No. 11 surgical knife.

platelets = conditions: cited from earlier work
[4] = complete blood cell count; conditions: data not shown
platelet aggregation = experiment: whole blood aggregometry, agonist-induced platelet aggregation; assay type: cell-based, swine; conditions: for platelet aggregation: 3 pigs
Description: Thirty minutes after administration of the heparin (in the heparin alone) or magnesium, 3 mL venous blood was collected in a siliconized test tube containing 0.3 mL of 0.129 molar sodium citrate or sodium heparin (Becton Dickinson Vacutainer System). Whole blood aggregometry (Chronolog Corp.) was used to measure collagen (2 and 5 μg/mL)- and Adenosine diphosphate (2.5 μM)-induced platelet aggregation. Aggregation was expressed as maximal increase in electrical impedance measured in ohms at 6 minutes after the addition of agonist.

[5] = serum magnesium level, magon dye method; assay type: in vivo, swine; conditions: in words, FIG. 5
Description: Serum magnesium levels for the test subjects were measured spectrophotometrically using the magon dye method. See Elm R J, Determination of serum magnesium concentration by clinical laboratories, […], 1991-92:60-6.

[6] = activated clotting time (ACT), Hemochron 400; assay type: in vivo, swine
Description: In the experiment discussed herein that was conducted according to one embodiment of the present invention, ACT was determined using a Hemochron 400 (International Technidyne Corp.) machine in standard fashion. See Makkar R R, Litvack F, Eigler N L, Nakamura M, Ivey P A, Forrester J S, Shah P K, Jordan R E, Kaul S, Effects of GP IIb/IIIa Receptor Monoclonal Antibody (7E3), Heparin, and Aspirin in an Ex Vivo Canine Arteriovenous Shunt Model of Stent Thrombosis, Circulation, 1997; 95(4): 1015-1021; and Makkar R R, Eigler N L, Kaul S, Nakamura M, Forrester J S, Herbert J-M, Litvack F I, Effects of clopidogrel, aspirin and combined therapy in a porcine ex vivo model of high-shear induced stent thrombosis, Eur Heart J, 1998; 19:1538-1546.

[7] = in vivo
Description: (§2) Experiments were performed in 10 swine weighing 25 to 30 kg. […] The right carotid artery and jugular vein were isolated and cannulated with 8F sheaths to establish an extracorporeal circuit as described previously. […] Arterial blood gases and pH were monitored periodically and maintained at normal levels by adjustment of the ventilation rate and tidal volume. Invasive arterial pressure measurement, oxygen saturation, ECG, and rectal temperature were monitored continuously. A thermostatically controlled blanket was used to maintain temperature at 37° C. Venous blood was collected for baseline platelet aggregation, complete blood cell count, and activated clotting time (ACT) measurements.
All animals received heparin at a dose of 10 U/kg as a bolus before the study to prevent thrombotic occlusion of catheters and tubing. […] At the conclusion of the experiment, blood was collected for complete blood cell counts, the carotid artery and jugular vein were ligated, and the animals were allowed to recover from anesthesia before being returned to the vivarium. Each animal was studied twice with a minimum interval of 2 weeks between each experiment.
At the end of each treatment, control stents were perfused to ensure return of stent thrombus weights towards baseline pre-treatment values. Effects on thrombus weight (TW), whole-blood platelet aggregation (PA), bleeding time (BT), activated clotting time (ACT), serum magnesium level, and complete blood count (CBC) were quantified at various time points as shown in the protocol schematic. Mean arterial blood pressure (MABP) and heart rate (HR) were monitored and recorded throughout the protocol.

[8] = test system: acute platelet-dependent stent thrombosis; conditions: 10 U/kg bolus, average of 200 U per swine; cited from earlier work
[9] = test system: acute platelet-dependent stent thrombosis; experiment: ex-vivo porcine arteriovenous shunt model of high-shear stent thrombosis (thrombus weight); assay type: in vivo, swine
Description: An experiment according to one embodiment of the present invention was performed using an ex-vivo model that primarily examines shear-mediated, platelet-dependent thrombus formation. This experiment allowed for the evaluation of the effects of magnesium, and the time-dependent nature thereof, on acute platelet-dependent stent thrombosis in an ex-vivo porcine arteriovenous shunt model of high-shear blood flow.
as §2
All animals received heparin at a dose of 10 U/kg as a bolus before the study to prevent thrombotic occlusion of catheters and tubing. […]

[10] = in words, beyond the heparin effect

O=S(=O)([O-])[O-].[Mg+2] [Mg, magnesium sulfate]
effect on heart rate ([1]; listed as Magnesium): no significant effects | effect on mean arterial blood pressure (MABP) ([1]; listed as Magnesium): no significant effects | effect on heart rate ([1]; listed as magnesium): no statistically significant effects | effect on mean arterial blood pressure (MABP) ([1]; listed as magnesium): no statistically significant effects | effect on heart rate ([2]; patients, IV MgSO4): did not have a significant effect | effect on mean arterial blood pressure ([2]; patients, IV MgSO4): did not have a significant effect | serum magnesium level ([2]; post-bolus (2 gm IV MgSO4), baseline 2.1±0.3, P<0.0001): 3.2 ± 0.3 mg/dL | serum magnesium level ([2]; post-infusion (total 16 gm)): 3.5 ± 0.8 mg/dL | GP IIb/IIIa inhibitors bailout (in-stent thrombosis; 21 patients): no case | death (in-stent thrombosis; 21 patients): not seen | myocardial infarction (in-stent thrombosis; 21 patients): not seen | urgent revascularization (in-stent thrombosis; 21 patients): not seen | coronary artery blood flow at end of intervention (in-stent thrombosis; all cases, 21 patients): normal coronary artery blood flow (TIMI 3 flow) | hemostatic or hemodynamic complications (in-stent thrombosis; human subjects): without any hemostatic or hemodynamic complications | effect on bleeding time [3, 10]: no significant effects | concentration at which anti-adhesive effect may occur (platelets): < 4 mEq/L | concentration at which anti-aggregatory effect may occur (platelets): > 5 mEq/L | effect on hematocrit [4]: no significant effects | effect on platelet counts [4]: no significant effects | effect on white blood cell counts [4]: no significant effects | effect on platelet aggregation (platelet aggregation; ADP (2.5 μM), data not shown): no effect | whole-blood platelet aggregation (platelet aggregation; FIG. 5, 5 μg/mL collagen, with addition of magnesium, from 25±3, not significant): 21±5 ohms | platelet aggregation (maximal increase in electrical impedance) (platelet aggregation; Mg-late alone, 6 minutes after agonist, baseline 25±3): 22±3 ohms | platelet aggregation (maximal increase in electrical impedance) (platelet aggregation; Mg-treated animals, >40 minutes post-bolus (Mg-late)): 21.0±5 ohms | platelet aggregation (maximal increase in electrical impedance) (platelet aggregation; Mg-treated animals, within 20 minutes post-bolus (Mg-early)): 23±4 ohms | platelet aggregation (platelet aggregation; citrate-stabilized blood, post-Mg (25±3 pre)): 22±3 ohms | effect on platelet aggregation (platelet aggregation; collagen 2 μg/ml, data not shown): no effect | platelet aggregation (platelet aggregation; heparin-stabilized samples, post-Mg (26±2 pre)): 27±2 ohms | effect on platelet aggregation (platelet aggregation; in words, listed as Magnesium): no significant effects | effect on platelet aggregation (platelet aggregation; in words, listed as magnesium): no significant effect | serum magnesium levels compared to control [5]: higher | effect on activated clotting time (ACT) [6, 10]: no significant effects

heparin
bleeding time ([3]; in vivo): 5.3±0.6 | effect on hematocrit [7]: no significant effects | effect on platelet counts [7]: no significant effects | effect on white blood cell counts [7]: no significant effects | effect on thrombus formation at high-shear conditions [8]: negligible effects | effect on thrombus formation (FIG. 2(a)) ([9]; given alone, magnesium both early and late groups): reduce thrombus formation slightly | reduction of stent thrombus weight (TW) ([9]; heparin alone, 50 U/kg IV bolus then 25-50 U/kg/hr, versus pre-treatment, mean±SD): 48±16% | platelet aggregation (maximal increase in electrical impedance) (platelet aggregation; heparin alone, 6 minutes after agonist, baseline 25±3): 24±6 ohms | ACT ([6]; prolonged from 109±8 seconds, P<0.01): 185 ± 36 s
